How the values were obtained:
[1] = tested on: Verticillium dahliae; experiment: Antifungal activity against Verticillium dahliae assessed as spore germination rate at 100 ppm relative to untreated control; assay type: functional
[2] = tested on: Fusarium oxysporum f. sp. melongenae; experiment: Antifungal activity against Fusarium oxysporum f. sp. melongenae assessed as spore germination rate at 100 ppm relative to untreated control; assay type: functional

Row | Compound | Activity [1] | Activity [2]
1 | C=C(C)[C@@H]1CC[C@]2(C1)[C@H](C)C[C@H](O)C[C@H]2C=O [EPILUBIMIN] | 54% | 30%
2 | C=C(C)[C@@H]1CC[C@]2(C1)[C@H](C)C[C@H](O)C[C@H]2O [15-NOREPILUBIMINOL] | 57% | 113%
3 | C=C(C)[C@@H]1CC[C@]2(C1)[C@H](C)C[C@H](O)C[C@@H]2C=O [LUBIMIN] | 42% | 5%
4 | C=C(C)[C@@H]1CC[C@]2(C1)[C@H](C)C[C@H](O)C[C@@H]2O [15-NORLIBIMINOL] | 52% | 114%

Source: ChEMBL document CHEMBL3044993, “Structural confirmation of 15-norlubiminol and 15-norepilubiminol, isolated from Solanum aethiopicum, by chemical conversion from lubimin and epilubimin, and their antifungal activity” (2001)
